Like-named read-outs stand apart in the source and are kept apart here.
Experiments:
[1] = NAC depletion percent, HPLC-fluorescence detection
Protocol: (§1) 1) To a 50 mL vessel, 11.6 mg (±0.1 mg) of NAC is weighed; to this, a 25 mL measuring pipet is used to add 20 mL of 100 mmol/L phosphate buffer (pH: 8.0); and the content is gently stirred using a test tube mixer to achieve dissolution (2 mmol/L). 2) To a 500 mL vessel, 149.5 mL of this buffer is added using a 50 mL measuring pipet; to this, 0.5 mL of the above-described 2 mmol/L NAC solution is added; and the content is mixed by inversion to achieve 300-fold dilution (6.667 μmon).
(§2) The test substance undiluted solution is defined as an “undiluted solution”, and used. Incidentally, this “undiluted solution” may be appropriately diluted to, for example, 1/10, 1/100, or 1/1000, using an appropriate solvent, and the resultant solution may be used.
(§3) Subsequently, the solution having the maximum dissolution concentration is defined as an “undiluted solution”, and tested. Incidentally, this “undiluted solution” may be appropriately diluted to, for example, 1/10, 1/100, or 1/1000, using an appropriate solvent, and the resultant solution may be used.
(§4) The test substance is prepared at 1 mmol/L in any of solvents that are water, acetonitrile, acetone, and a 5 mass % dimethyl sulfoxide (DMSO)/acetonitrile solution and used as a test substance solution. As the solvent, a solvent in which the test substance dissolves at 1 mmol/L is used; when the test substance is soluble in a plurality of solvents, the solvent is selected in the following order of decreasing precedence: water, acetonitrile, acetone, and 5 mass % DMSO/acetonitrile.
(§5) Test substance solutions are prepared on a 96-well plate (U96 PP-0.5 ML NATURAL, Thermo Fisher Scientific Inc. (NUNC)) mainly using a 12-channel pipette, and a reagent is added in accordance with the following formula.
(§6) Nucleophilic reagent (NAC and NAL): 150 μL
(§7) Test substance solution: 50 μL
(§8) The plate is tightly sealed using a plate sealing (Resistant embossed seal, SHIMADZU GLC Ltd.), and stirred using a plate shaker (Titramax 100, Heidolph Instruments GmbH & CO. KG). The plate is subjected to spinning down using a centrifuge, and then to incubation at 25° C., for 24 hours, in a light-shielded state.
(§9) After the incubation for 24 hours, the plate sealing is removed; to each sample, 50 µL of the reaction stopping solution is added to stop the reaction.
(§10) The HPLC measurement conditions for the nucleophilic reagents are as follows.
(§11) From the average values (each, n=3) of peak areas of the post-reaction unreacted NAC or NAL and the blank-test (after performing the reaction step without addition of the test substances) NAC or NAL, the following formula is used to calculate the depletion percent of NAC or NAL.
(§12) NAC depletion percent (% depletion)=[1−(Average value of peak areas of post-reaction unreacted NAC/Average value of peak areas of blank-test (after performing the reaction step without addition of the test substances) NAC)]×100
(§13) The average value of peak areas of the post-reaction unreacted NAC is the average value of areas obtained by measuring three times post-reaction unreacted NAC. The average value of peak areas of blank-test (after performing the reaction step without addition of the test substances) NAC is the average value of areas obtained by measuring three times blank-test (after performing the reaction step without addition of the test substances) NAC.
(§14) The reactions were each performed on a 96-well plate, and the number of samples of each case was set to n=3. In addition, as controls, reaction solutions including the solvent alone were prepared. The reaction solutions were prepared so as to have a NAC or NAL concentration of 5 μmon. To the reaction solutions after the lapse of 24 hours, a trifluoroacetic acid (TFA) aqueous solution was added such that the final concentration became 0.5% (v/v) TFA. Subsequently, HPLC was performed for measurements by two detection methods that were light absorption detection using a photodiode array (PDA) detector, and fluorescence detection using a fluorescence detector.

[2] = NAL depletion percent, HPLC-fluorescence detection
Protocol: as §1, with “12.6” for “11.6”, “NAL” for “NAC”, “10.2);” for “8.0);”, “mixture” for “mixer”, “mmol/L NAL solution).” for “mmol/L).”, “μmol/L).” for “μmon).”
as §2, §3, §4, §5, §6, §7, §8, §9, §10, §11
(§15) NAL depletion percent (% depletion)=[1−(Average value of peak areas of post-reaction unreacted NAL/Average value of peak areas of blank-test (after performing the reaction step without addition of the test substances) NAL)]×100
(§16) The average value of peak areas of post-reaction unreacted NAL is the average value of areas obtained by measuring three times post-reaction unreacted NAL. The average value of peak areas of blank-test (after performing the reaction step without addition of the test substances) NAL is the average value of areas obtained by measuring three times blank-test (after performing the reaction step without addition of the test substances) NAL.
as §14

[3] = Average score of NAC and NAL depletion and prediction of skin allergenicity, fluorescence method; settings: for Average score: test substance solution 1 mmol/L; for determination of skin allergenicity from average score: criterion […]
Protocol: (§17) The average value (Average Score) of NAC and NAL depletion percents is calculated. In the resultant value, the second decimal place is rounded off.
(§18) Average value (Average Score) of NAC and NAL depletion percents=(NAC depletion percent+NAL depletion percent)/2
(§19) The depletion percent of at least one of NAC or NAL or the average score of the depletion percents of NAC and NAL is calculated, and whether or not the test substances are “allergenic substances” or “non-allergenic substances” is determined:
(§20) (1) in a case of performing evaluation based on the average value of the depletion percent of NAC and the depletion percent of NAL,
(§21) In the following Tables, S represents as being an allergenic substance and NS represents as being a non-allergenic substance.

[4] = NAC depletion percent, HPLC-UV detection (281 nm)
Protocol: as §1, §2, §3, §4, §5, §6, §7, §8, §9, §10, §11, §12, §13, §14

[5] = NAL depletion percent, HPLC-UV detection (281 nm)
Protocol: as §1, with “12.6” for “11.6”, “NAL” for “NAC”, “10.2);” for “8.0);”, “mixture” for “mixer”, “mmol/L NAL solution).” for “mmol/L).”, “μmol/L).” for “μmon).”
as §2, §3, §4, §5, §6, §7, §8, §9, §10, §11, §15, §16, §14

[6] = Average score of NAC and NAL depletion and prediction of skin allergenicity, UV method; settings: for Average score: test substance solution 1 mmol/L; for Mean Depletion (%) (average score) / determination of skin allergenicity from average score: UV method; for determination of skin allergenicity from average score: criterion […]
Protocol: as §17, §18, §19, §20, §21

[7] = cited from earlier work
[8] = single substance, test substance solution 1 mmol/L, fluorescence method
[9] = single substance, fluorescence method
[10] = single substance, test substance solution 1 mmol/L, Reference (UV method)
[11] = single substance, Reference (UV method)
[12] = single substance, fluorescence method, criterion average score […]
[13] = single substance, Reference (UV method), criterion average score […]
[14] = known values, LLNA-test-based classification, − for non-allergenic substances
[15] = Fluorescence method, non-allergenic substance
[16] = Reference (UV method), non-allergenic substance
[17] = 1/1 (undiluted solution), fluorescence method, 25° C. 24 hours
[18] = 1/10 diluted solution, fluorescence method
[19] = 1/1 (undiluted solution), fluorescence method
[20] = 1/1 (undiluted solution), UV method
[21] = 1/10 diluted solution, UV method

SMILES | NAC depletion (%) [1, 8] [%] | NAL depletion (%) [2, 8] [%] | Average score [3, 9] [%] | NAC depletion (%) [4, 10] [%] | NAL depletion (%) [5, 10] [%] | Average score [6, 11] [%] | EC3 (%) ([7]; in vivo) | Prediction result [3, 12] | Prediction result [6, 13] | EC3 (%) [7, 14] [%] | other results
O=c1[nH]sc2ccccc12 [1,2-Benzisothiazolin-3-one] | 98.8 | 0.2 | 49.5 | 100.0 | 0.4 | 50.2 | 2.3% |  |  |  | Prediction result [3]: S (key: S represents as being an allergenic substance; NS represents as being a non-allergenic substance); Prediction result [6]: S (key: S represents as being an allergenic substance; NS represents as being a non-allergenic substance)
CCC(=O)C=Cc1ccc(OC)cc1 [1-(4-Methoxyphenyl)-1-penten-3-one] | 1.2 | 0.4 | 0.8 | 1.6 | 4.2 | 2.9 |  | NS (NS represents as being a non-allergenic substance) | NS (NS represents as being a non-allergenic substance) | 9.3 | 
CCCCO [1-Butanol] |  |  |  |  |  |  | − |  |  |  | NAC depletion (%) [1, 15]: 2.1%; NAL depletion (%) [2, 15]: 0.3%; NAC depletion (%) [4, 16]: 0.1%; NAL depletion (%) [5, 16]: 0.8%
CC(C)(C)C(=O)CC(=O)C(C)(C)C [2,2,6,6-Tetramethyl-3,5-heptanedione] | 0.0 | 0.0 | 0.0 | 0.5 | 1.6 | 1.1 |  | NS (NS represents as being a non-allergenic substance) | NS (NS represents as being a non-allergenic substance) | 27 | 
CCC=CC=CC=O [2,4-Heptadienal] | 46.2 | 11.8 | 29.0 | 35.8 | 50.1 | 42.9 |  | S (S represents as being an allergenic substance) | S (S represents as being an allergenic substance) | 4 | 
Sc1nc2ccccc2s1 [2-Mercaptobenzothiazole] | 65.5 | 0.0 | 32.7 | 56.6 | 0.3 | 28.4 |  | S (S represents as being an allergenic substance) | S (S represents as being an allergenic substance) | 1.7 | 
Cn1sccc1=O [2-Methyl-2H-isothiazol-3-one] | 98.5 | 4.6 | 51.6 | 94.0 | 7.0 | 50.5 |  | S (S represents as being an allergenic substance) | S (S represents as being an allergenic substance) | 1.9 | 
CC(C=O)c1ccccc1 (centres unmarked) [2-Phenylpropionaldehyde] | 8.5 | 7.3 | 7.9 | 8.0 | 4.6 | 6.3 |  | S (S represents as being an allergenic substance) | S (S represents as being an allergenic substance) | 6.3 | 
C=CCc1ccc(OC)cc1 [4-Allylanisole] | 15.0 | 0.7 | 7.9 | 27.0 | 3.9 | 15.4 |  | S (S represents as being an allergenic substance) | S (S represents as being an allergenic substance) | 18 | 
C=O [Formaldehyde] |  |  |  |  |  |  | 0.61% |  |  |  | Prediction result [3]: S (key: S represents as being an allergenic substance; NS represents as being a non-allergenic substance); Prediction result [6]: S (key: S represents as being an allergenic substance; NS represents as being a non-allergenic substance)
CCCOC(=O)c1ccc(O)cc1 [Propylparaben] |  |  |  |  |  |  | − |  |  |  | NAC depletion (%) [1, 15]: 0.5%; NAL depletion (%) [2, 15]: 4.4%; NAC depletion (%) [4, 16]: 0.1%; NAL depletion (%) [5, 16]: 1.9%
CC[C@H](CC[C@@H](C)[C@H]1CC[C@H]2[C@@H]3CC=C4C[C@@H](O)CC[C@]4(C)[C@H]3CC[C@]12C)C(C)C [β-sitosterol, β-Sitosterol] |  |  |  |  |  |  |  |  |  |  | NAC depletion (%) [1, 17]: 0.0%; NAC depletion (%) [1, 18]: 0.6%; NAL depletion (%) [2, 17]: 0.1%; NAL depletion (%) [2, 18]: 0.0%; Mean Depletion (%) (average score) [3, 19]: 0.1%; determination of skin allergenicity from average score [3, 19]: not having skin allergenicity; Mean Depletion (%) (average score) [3, 18]: 0.3%; determination of skin allergenicity from average score [3, 18]: not having skin allergenicity; NAC depletion (%) [4, 20]: 0.0%; NAC depletion (%) [4, 21]: 3.9%; NAL depletion (%) [5, 20]: 0.0%; NAL depletion (%) [5, 21]: 0.0%; Mean Depletion (%) (average score) ([6]; 1/1 (undiluted solution)): 0.0%; determination of skin allergenicity from average score ([6]; 1/1 (undiluted solution)): not having skin allergenicity; Mean Depletion (%) (average score) ([6]; 1/10 diluted solution): 1.9%; determination of skin allergenicity from average score ([6]; 1/10 diluted solution): not having skin allergenicity

Source: patent publication US20210181109A1 (FUJIFILM Corporation, priority 2018, published 2021)
